Measured values as given in ChEMBL document CHEMBL3885861, “Open TG-GATES”.

Organism: Rattus norvegicus
Assay: Open TG-GATES - Regimen: Daily Repeat
Type: toxicity, organism-based, Sprague-Dawley
Design: regimen Daily Repeat, gender Male, age 6 weeks
Conditions: in vivo, po, 30 mg/kg, route gavage, dose level Middle; for APTT / Bas / Eos / Fbg / Hb / Ht / Lym / MCH / MCHC / MCV / Mono / Neu / Plat / RBC / Ret / WBC: tissue Blood; for KIDNEY_L / KIDNEY_R / KIDNEY_TOTAL: tissue Kidney; for ALP / ALT / AST / BUN / CRE / DBIL / GLC / IP / K / LDH / Na / PL / RALB / TBIL / TC / TG / TP / gamma-GTP: tissue Plasma

CN(C)CCC=C1c2ccccc2COc2ccccc21 [DOXEPIN]
TERMINAL_BW (72 h, time 3 day): 221 g
APTT (72 h, time 3 day): 16.8 s
Bas (72 h, time 3 day): 0%
Eos (72 h, time 3 day): 0.8%
Fbg (72 h, time 3 day): 336.2 mg/dL
Hb (72 h, time 3 day): 13 g/dL
Ht (72 h, time 3 day): 37.8%
Lym (72 h, time 3 day): 73.4%
MCH (72 h, time 3 day): 21.6 pg
MCHC (72 h, time 3 day): 34.4%
MCV (72 h, time 3 day): 62.9 fL
Mono (72 h, time 3 day): 2.8%
Neu (72 h, time 3 day): 22.6%
Plat (72 h, time 3 day): 113.6 x10_4/uL
RBC (72 h, time 3 day): 600.6 x10_4/ul
Ret (72 h, time 3 day): 6.9%
WBC (72 h, time 3 day): 66.4 x10_2/uL
KIDNEY_L (72 h, time 3 day): 1 g
KIDNEY_R (72 h, time 3 day): 1 g
KIDNEY_TOTAL (72 h, time 3 day): 2 g
ALP (72 h, time 3 day): 1714.2 IU/L
ALT (72 h, time 3 day): 50 IU/L
AST (72 h, time 3 day): 75 IU/L
BUN (72 h, time 3 day): 15 mg/dL
CRE (72 h, time 3 day): 0.2 mg/dL
DBIL (72 h, time 3 day): 0.018 mg/dL
GLC (72 h, time 3 day): 193.6 mg/dL
IP (72 h, time 3 day): 7.3 mg/dL
K (72 h, time 3 day): 4.5 meq/L
LDH (72 h, time 3 day): 94 IU/L
Na (72 h, time 3 day): 142.2 meq/L
PL (72 h, time 3 day): 147.6 mg/dL
RALB (72 h, time 3 day): 2.7 g/dL
TBIL (72 h, time 3 day): 0.032 mg/dL
TC (72 h, time 3 day): 81.2 mg/dL
TG (72 h, time 3 day): 97 mg/dL
TP (72 h, time 3 day): 5.9 g/dL
gamma-GTP (72 h, time 3 day): 1.2 IU/L
TERMINAL_BW ([…], time 7 day): 252.6 g
TERMINAL_BW ([…], time 14 day): 310 g
TERMINAL_BW ([…], time 28 day): 397.6 g
APTT ([…], time 7 day): 18.3 s
Bas ([…], time 7 day): 0%
Eos ([…], time 7 day): 1%
Fbg ([…], time 7 day): 293.4 mg/dL
Hb ([…], time 7 day): 13.4 g/dL
Ht ([…], time 7 day): 38.2%
Lym ([…], time 7 day): 81.4%
MCH ([…], time 7 day): 21.5 pg
MCHC ([…], time 7 day): 35.1%
MCV ([…], time 7 day): 61.2 fL
Mono ([…], time 7 day): 2.6%
Neu ([…], time 7 day): 14.4%
Plat ([…], time 7 day): 115.8 x10_4/uL
RBC ([…], time 7 day): 624.8 x10_4/ul
Ret ([…], time 7 day): 5.8%
WBC ([…], time 7 day): 90.6 x10_2/uL
APTT ([…], time 14 day): 16.2 s
Bas ([…], time 14 day): 0%
Eos ([…], time 14 day): 1%
Fbg ([…], time 14 day): 310.4 mg/dL
Hb ([…], time 14 day): 14 g/dL
Ht ([…], time 14 day): 40.7%
Lym ([…], time 14 day): 77.2%
MCH ([…], time 14 day): 20.9 pg
MCHC ([…], time 14 day): 34.5%
MCV ([…], time 14 day): 60.6 fL
Mono ([…], time 14 day): 2.4%
Neu ([…], time 14 day): 18.8%
Plat ([…], time 14 day): 101.5 x10_4/uL
RBC ([…], time 14 day): 671.4 x10_4/ul
Ret ([…], time 14 day): 4.6%
WBC ([…], time 14 day): 80.3 x10_2/uL
APTT ([…], time 28 day): 18 s
Bas ([…], time 28 day): 0%
Eos ([…], time 28 day): 1.4%
Fbg ([…], time 28 day): 282 mg/dL
Hb ([…], time 28 day): 14.9 g/dL
Ht ([…], time 28 day): 42%
Lym ([…], time 28 day): 79%
MCH ([…], time 28 day): 19.7 pg
MCHC ([…], time 28 day): 35.4%
MCV ([…], time 28 day): 55.8 fL
Mono ([…], time 28 day): 2.6%
Neu ([…], time 28 day): 16.4%
Plat ([…], time 28 day): 112.2 x10_4/uL
RBC ([…], time 28 day): 754.2 x10_4/ul
Ret ([…], time 28 day): 2.4%
WBC ([…], time 28 day): 93.4 x10_2/uL
KIDNEY_L ([…], time 7 day): 1 g
KIDNEY_R ([…], time 7 day): 1 g
KIDNEY_TOTAL ([…], time 7 day): 2.1 g
KIDNEY_L ([…], time 14 day): 1.2 g
KIDNEY_R ([…], time 14 day): 1.2 g
KIDNEY_TOTAL ([…], time 14 day): 2.4 g
KIDNEY_L ([…], time 28 day): 1.4 g
KIDNEY_R ([…], time 28 day): 1.3 g
KIDNEY_TOTAL ([…], time 28 day): 2.7 g
ALP ([…], time 7 day): 1770.4 IU/L
ALT ([…], time 7 day): 48 IU/L
AST ([…], time 7 day): 72.6 IU/L
BUN ([…], time 7 day): 17.4 mg/dL
CRE ([…], time 7 day): 0.2 mg/dL
DBIL ([…], time 7 day): 0.018 mg/dL
GLC ([…], time 7 day): 191.2 mg/dL
IP ([…], time 7 day): 7.2 mg/dL
K ([…], time 7 day): 4.3 meq/L
LDH ([…], time 7 day): 76.2 IU/L
Na ([…], time 7 day): 142 meq/L
PL ([…], time 7 day): 145.4 mg/dL
RALB ([…], time 7 day): 2.7 g/dL
TBIL ([…], time 7 day): 0.034 mg/dL
TC ([…], time 7 day): 75.8 mg/dL
TG ([…], time 7 day): 106.4 mg/dL
TP ([…], time 7 day): 5.7 g/dL
gamma-GTP ([…], time 7 day): 1.4 IU/L
ALP ([…], time 14 day): 1433.6 IU/L
ALT ([…], time 14 day): 42.8 IU/L
AST ([…], time 14 day): 69 IU/L
BUN ([…], time 14 day): 18.8 mg/dL
CRE ([…], time 14 day): 0.2 mg/dL
DBIL ([…], time 14 day): 0.014 mg/dL
GLC ([…], time 14 day): 191.4 mg/dL
IP ([…], time 14 day): 6.8 mg/dL
K ([…], time 14 day): 4.1 meq/L
LDH ([…], time 14 day): 69.6 IU/L
Na ([…], time 14 day): 142.8 meq/L
PL ([…], time 14 day): 148.6 mg/dL
RALB ([…], time 14 day): 2.7 g/dL
TBIL ([…], time 14 day): 0.026 mg/dL
TC ([…], time 14 day): 71.4 mg/dL
TG ([…], time 14 day): 153.8 mg/dL
TP ([…], time 14 day): 6 g/dL
gamma-GTP ([…], time 14 day): 1 IU/L
ALP ([…], time 28 day): 1369.6 IU/L
ALT ([…], time 28 day): 43.6 IU/L
AST ([…], time 28 day): 67.2 IU/L
CRE ([…], time 28 day): 0.2 mg/dL
DBIL ([…], time 28 day): 0.022 mg/dL
GLC ([…], time 28 day): 185 mg/dL
IP ([…], time 28 day): 6.1 mg/dL
K ([…], time 28 day): 4.1 meq/L
LDH ([…], time 28 day): 81.4 IU/L
Na ([…], time 28 day): 143.6 meq/L
PL ([…], time 28 day): 140.6 mg/dL
RALB ([…], time 28 day): 2.8 g/dL
TBIL ([…], time 28 day): 0.034 mg/dL
TC ([…], time 28 day): 66 mg/dL
TG ([…], time 28 day): 166.4 mg/dL
TP ([…], time 28 day): 6.2 g/dL
gamma-GTP ([…], time 28 day): 1.4 IU/L
